Experimental findings from US20230053649A1 (Cedilla Therapeutics, Inc., priority 2021, published 2023) are described below.

The test system of experiment [1] is mesothelioma cell line NCI-H226. Briefly: 72H TEAD Proliferation Assay (Cell Titer-Glo 2.0). The conditions noted are these: Homo sapiens, CTG 2.0, cell line not given in Table 1 (NCI-H226 TEAD-responsive, NCI-H28 non-responsive counter-screen). The class given is cell-based. As to the method:
72H TEAD Proliferation Assay.
The effect of TEAD inhibition on cell proliferation was assayed using Cell Titer Glo (CTG) 2.0 to measure response in mesothelioma cell lines NCI-H226 (ATCC, #CRL-5826) and NCI-H28 (ATCC, #CRL-5820).
The 72H TEAD Proliferation assay utilizes Cell Titer-Glo 2.0 (Promega, #G9243) to measure the proliferation of cells in the presence or absence of compound. Cell Titer-Glo 2.0 determines the amount of viable cells by quantifying ATP (an indication of metabolically active cells). It utilizes the conversion of Luciferin to Oxyluciferin and a luminescent signal with the use of ATP to report the quantity of viable cells in culture. Within cells that are continually growing, ATP is being synthesized to meet their metabolic demands, meanwhile the opposite is true for cells that are dying or slowing down their proliferation and either no longer using ATP or are using less, respectively. The NF2-deficient NCI-H226 has been genetically validated as a cell line that is sensitive to TEAD inhibition. The NF2-wild type NCI-H28 has been genetically validated as a cell line that is not sensitive to TEAD inhibition and grows independently of TEAD activity.
Compounds were screened against the responsive NCI-H226 cell line to assess the compounds' ability to inhibit TEAD and cell growth. Compounds were also screened against the non-responsive NCI-H28 cell line to ascertain whether the inhibition of cell growth was due to inhibition of the target TEAD or whether the inhibition was due to off-target cytotoxicity.
Both NCI-H226 and NCI-H28 cells were grown at 37° C. with 5% CO2 using Growth Medium 1.
Anti-proliferative effect of compounds that inhibits TEAD activity measured by CTG
1) Assay ready plates (ARPs) were prepared by Echo acoustic liquid handler. For each compound, duplicate of 10-point half-log dilution series were dispensed in a 384-well microplate (Corning 3571).
3) Before use, ARPs were allowed to warm up to room temperature for 30 min.
4) ARPs were spun for 5 minutes at 1500RPM before removing the plate seals.
5) NCI-H226 or NCI-H28 cells were harvested from culture in Assay Medium 1 and the multidrop Combi reagent dispenser was used to seed cells at 500 cells per 50ul in each well of the ARPs and one Corning 3571 plate without compounds for Time 0 (TO) readout.
6) The TO plate was incubated for 2 hours at 37° C. with 5% CO2 to allow cells to settle, then the CTG Assay was performed.
7) All ARPs were incubated for 72 hours at 37° C. with 5% CO2, then the CTG Assay was performed for Time 72H (T72) readout.
8) CTG Assay: Bravo liquid handler (Agilent) was used to add 25ul of CTG 2.0 to all columns of the plate except for Column 24, which was used to subtract out the background. After CTG addition, plates were placed on shaker at 800RPM for 15 minutes at room temperature and kept in the dark. Luminescence was measured using EnVision multilabel plate reader with ultra-sensitive detection module.
9) Data Analysis: First background luminescence (no CTG wells) was subtracted from luminescence reading of all wells, then TO luminescence was subtracted from T72 luminescence. To compare anti-proliferative effect of compounds, GI50 was obtained by fitting dose response curves with nonlinear regression curve fit.
Background: Cellular ATP, detected with luciferase, serves as a proxy for viable cell number.

In experiment [2] the target is T1, TEAD1 protein (YAP Binding Domain) (Homo sapiens, UniProt P28347). Briefly: biochemical.
Method: Compound Displacement Assay.
(§1) A TEAD1 lipid pocket displacement assay was carried out according to the following protocol. Purified His-tagged TEAD1 protein (YAP Binding Domain) was pre-mixed with a Cy5-probe (Cy5-conjugated to a small molecule that binds in the TEAD1 lipid pocket) and Terbium-labeled anti-His antibody (Cisbio Cat 61HI2TLB). The binding of the Cy5-probe to anti-His-Tb/His-tag TEAD1 complex yielded a TR-FRET signal. […] After 60 minutes incubation at room temperature of compounds with the His-TEAD1/anti-His-Tb/Cy5-probe complex, the plate was read on a plate reader (BMG ClarioStar Cat 430-1300) using TR-FRET mode with wavelengths of 665 nm/620 nm. The potency of compounds as TEAD1 lipid pocket binders was determined by IC50 value generated using a non-linear 4 parameter curve fit.
Experiment [3] deals with T1, TEAD1 protein (YAP Binding Domain). Briefly: TEAD1 lipid pocket compound displacement assay (CDA, TR-FRET). The conditions noted are these: read-out: CDA IC50, displacement of Cy5-probe from His-TEAD1, 60 minutes at room temperature.
Method: Compound Displacement Assay.
as §1
Experiment [4] has as its system EGFR-mutant NSCLC PC-9 cells. Briefly: Apoptosis (caspase-3/7, IncuCyte) in combination with EGFR inhibitor Osimertinib. The class given is cell-based. As to the method:
Apoptosis was detected by CellEvent Caspase 3/7 Green ReadyProbes Reagent (ThermoFisher), a fluorogenic indicator of activated caspase-3/7. Cell death (apoptsis) and cell growth (phase confluence) over time were captured by IncuCyte live cell imaging system (Essen Bioscience) and quantified by IncuCyte S3 software (Essen Bioscience). Apoptotic Index was calculated by dividing apoptosis signal with phase confluence.

T1 sequence (P28347 167-426 limits assumed): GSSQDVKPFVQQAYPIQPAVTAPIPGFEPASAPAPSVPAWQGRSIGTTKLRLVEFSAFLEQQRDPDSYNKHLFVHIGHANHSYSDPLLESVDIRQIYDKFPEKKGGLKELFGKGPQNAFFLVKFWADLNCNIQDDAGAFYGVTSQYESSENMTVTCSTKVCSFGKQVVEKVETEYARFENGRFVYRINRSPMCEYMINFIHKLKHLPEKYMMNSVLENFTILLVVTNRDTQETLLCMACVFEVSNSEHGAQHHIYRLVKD

As a reminder, the GI50 is the concentration giving 50% growth inhibition. Low readings indicate more potent growth inhibition, high ones less potent growth inhibition. As usually defined, the IC50 is the concentration that gives 50% inhibition. Turning to `COc1cc(N2CCC(C(F)(F)F)CC2)c2ncc(C(=O)N[C@H](C)C(=O)O)cc2c1` [Compound I-42, (6-Methoxy-8-(4-(trifluoromethyl)piperidin-1-yl)quinoline-3-carbonyl)-D-alanine], in experiment [1], the GI50 was more than 5000 nM. This compound showed a half-maximal inhibitory concentration (IC50) in experiment [2] of 150 to 300 nM.

On to `CC[C@H](CO)NC(=O)c1ccc2c(-c3ccc(C(F)(F)F)cc3)nc(OC)cc2c1` [I″-53, (R)-N-(1-hydroxybutan-2-yl)-3-methoxy-1-(4-(trifluoromethyl)phenyl)isoquinoline-6-carboxamide], for which the GI50 in experiment [1] is not above 500 nM. The compound further came in with an IC50 in experiment [2] of less than 150 nM.

`COC[C@H](C)NC(=O)c1ccc2c(N3CCC(C(F)(F)F)CC3)nc(OC)cc2c1` [Compound I-50, (S)-3-Methoxy-N-(1-methoxypropan-2-yl)-1-(4-(trifluoromethyl)piperidin-1-yl)isoquinoline-6-carboxamide] displayed a GI50 in experiment [1] of 500 to 1000 nM. Besides, the 50% inhibitory concentration (IC50) in experiment [2] was less than 150 nM.

Compound `COc1cc2cc(C(=O)N[C@H](C)CO)ccc2c(N2CCC(C(F)(F)F)CC2)n1` [Compound I-49, (R)-N-(1-hydroxypropan-2-yl)-3-methoxy-1-(4-(trifluoromethyl)piperidin-1-yl)isoquinoline-6-carboxamide] registered a 50% growth inhibitory concentration (GI50) in experiment [1] not above 500 nM. Besides, in experiment [2], the concentration for half-maximal inhibition (IC50) is less than 150 nM.

Compound `C[C@H](CO)NC(=O)c1ccc2c(N3CCC(C(F)(F)F)CC3)nc(C(F)(F)F)cc2c1` [Compound I-52, (R)-N-(1-hydroxypropan-2-yl)-3-(trifluoromethyl)-1-(4-(trifluoromethyl)piperidin-1-yl)isoquinoline-6-carboxamide] came in with a GI50 in experiment [1] not above 500 nM. This compound had a concentration for half-maximal inhibition (IC50) in experiment [2] of less than 150 nM.

Take `CC(CO)NC(=O)c1ccc2c(OCC3CCC(F)(F)CC3)cccc2c1` (centres unmarked) [Compound I-22, 5-((4,4-Difluorocyclohexyl)methoxy)-N-(1-hydroxypropan-2-yl)-2-naphthamide]: the GI50 in experiment [1] was not above 500 nM. The half-maximal inhibitory concentration (IC50) in experiment [2] lay in the range of 150 to 300 nM.

Consider `COc1cc(N2CCC(C(F)(F)F)CC2)c2ncc(C(=O)N[C@@H](CO)C3CC3)cc2c1` [Compound I-36], for which the concentration for 50% growth inhibition (GI50) in experiment [1] fell in the range of 500 to 1000 nM. The IC50 in experiment [2] fell in the range of 150 to 300 nM.

In experiment [1], `C[C@H](NC(=O)c1ccc2c(N3CCC(C(F)(F)F)CC3)nccc2c1)c1ccccn1` [Compound I-51, (S)-N-(1-(Pyridin-2-yl)ethyl)-1-(4-(trifluoromethyl)piperidin-1-yl)isoquinoline-6-carboxamide] came in with a GI50 not above 500 nM. This compound also yielded an IC50 in experiment [2] of less than 150 nM.

Take `COc1cc(N2CCC(C(F)(F)F)CC2)c2ncc(C(=O)N[C@@H](C)c3cccc(C(=O)O)c3)cc2c1` [Compound I-43, (S)-3-(1-(6-methoxy-8-(4-(trifluoromethyl)piperidin-1-yl)quinoline-3-carboxamido)ethyl)benzoic acid]: the concentration for 50% growth inhibition (GI50) in experiment [1] was more than 5000 nM. In experiment [2], this compound returned a half-inhibitory concentration (IC50) of less than 150 nM.

In experiment [1], `COc1cc(N2CCC(C(F)F)CC2)c2ncc(C(=O)N[C@H](C)CO)cc2c1` [Compound I-7, (R)-8-(4-(difluoromethyl)piperidin-1-yl)-N-(1-hydroxypropan-2-yl)-6-methoxyquinoline-3-carboxamide] returned a concentration for 50% growth inhibition (GI50) of 1000 to 5000 nM. The half-inhibitory concentration (IC50) in experiment [2] is 150 to 300 nM.

The compound `Cc1cc2cc(C(=O)N[C@H](C)CO)ccc2c(N2CCC(C(F)(F)F)CC2)n1` [Compound I-48, (R)-N-(1-hydroxypropan-2-yl)-3-methyl-1-(4-(trifluoromethyl)piperidin-1-yl)isoquinoline-6-carboxamide] displayed a GI50 in experiment [1] not above 500 nM. The IC50 in experiment [2] lay within 150 to 300 nM.

As to `C[C@H](NC(=O)c1ccc2c(N3CCC(C(F)(F)F)CC3)cccc2c1)c1ccccn1` [Compound I-58, (S)-N-(1-(pyridin-2-yl)ethyl)-5-(4-(trifluoromethyl)piperidin-1-yl)-2-naphthamide], the GI50 in experiment [1] is not above 500 nM. In experiment [2], the IC50 is less than 150 nM.

In experiment [1], `COc1ccc2c(N3CCC(C(F)(F)F)CC3)nc(C(=O)O)cc2c1` [Compound 68, 6-methoxy-1-(4-(trifluoromethyl)piperidin-1-yl)isoquinoline-3-carboxylic acid] had a GI50 of more than 5000 nM. This compound also came in with a concentration for half-maximal inhibition (IC50) in experiment [2] of more than 500 nM.

With `COc1ccc2c(N3CCC(C(F)(F)F)CC3)nc(C(N)=O)cc2c1` [Compound 66], the concentration for 50% growth inhibition (GI50) in experiment [1] was 1000 to 5000 nM. Moreover, the IC50 in experiment [3] is less than 150 nM.

Consider `C#Cc1cccc2cc(C(=O)N[C@@H](C)c3ccccn3)cnc12` [Compound 30, (S)-8-ethynyl-N-(1-(pyridin-2-yl)ethyl)quinoline-3-carboxamide], for which the GI50 in experiment [1] is more than 5000 nM. Also, the half-maximal inhibitory concentration (IC50) in experiment [2] was more than 500 nM.

In experiment [1], `COc1cc(-c2ccc(OC3CC3)cc2)c2ncc(C(=O)N[C@H](C)CO)cc2c1` [Compound I-20, (R)-8-(4-cyclopropoxyphenyl)-N-(1-hydroxypropan-2-yl)-6-methoxyquinoline-3-carboxamide] registered a GI50 not above 500 nM. The half-inhibitory concentration (IC50) in experiment [2] is less than 150 nM.

Take `COc1cc(N2CCC(C(F)(F)F)CC2)c2ncc(C(=O)N[C@H](C)CO)cc2c1` [Compound I-1, (R)-N-(1-hydroxypropan-2-yl)-6-methoxy-8-(4-(trifluoromethyl)piperidin-1-yl)quinoline-3-carboxamide]: the GI50 in experiment [1] was in the range of 500 to 1000 nM. Besides, the half-maximal inhibitory concentration (IC50) in experiment [2] is 150 to 300 nM. The “Fold Change over DMSO at 48 hrs (apoptotic index)” value was determined as 1.0 in experiment [4] (I-1 (10 μM) alone); 4.1 in experiment [4] (Osimertinib (100 nM) + I-1 (0.37 μM), 24 h Osimertinib pre-treatment); 5.4 in experiment [4] (Osimertinib (100 nM) + I-1 (1.1 μM), 24 h Osimertinib pre-treatment); 7.0 in experiment [4] (Osimertinib (100 nM) + I-1 (10 μM), 24 h Osimertinib pre-treatment).

`COc1ccc2c(N3CCC(C(F)(F)F)CC3)nc(C(=O)N[C@H](C)CO)cc2c1` [Compound 67, (R)-N-(1-hydroxypropan-2-yl)-6-methoxy-1-(4-(trifluoromethyl)piperidin-1-yl)isoquinoline-3-carboxamide]: the GI50 in experiment [1] was more than 5000 nM. This compound registered a half-inhibitory concentration (IC50) in experiment [2] of more than 500 nM.

Compound `COc1cc(N2CCC(C(F)(F)F)CC2)c2ncc(C(=O)N[C@@H](CO)C(C)C)cc2c1` [Compound I-35, (R)-N-(1-hydroxy-3-methylbutan-2-yl)-6-methoxy-8-(4-(trifluoromethyl)piperidin-1-yl) quinolone-3-carboxamide] yielded a GI50 in experiment [1] of 500 to 1000 nM. In addition, the half-inhibitory concentration (IC50) in experiment [2] was in the range of 300 to 500 nM.

For the compound `C=CC(=O)Nc1cc(Nc2nccc(-c3cn(C)c4ccccc34)n2)c(OC)cc1N(C)CCN(C)C` [Osimertinib, reference compound], in experiment [4] (Osimertinib (100 nM) alone), the “Fold Change over DMSO at 48 hrs (apoptotic index)” value worked out at 2.6.

Compound `CC(NC(=O)c1cnc2c(OCC3CCC(F)(F)CC3)cccc2c1)c1ccccn1` (centres unmarked) [Compound I-46, 8-((4,4-Difluorocyclohexyl)methoxy)-N-(1-(pyridin-2-yl)ethyl)quinoline-3-carboxamide] came in with a concentration for 50% growth inhibition (GI50) in experiment [1] of 1000 to 5000 nM. The compound also displayed an IC50 in experiment [2] of 300 to 500 nM.

Take `COc1cc(-c2ccc(OCC(F)(F)F)cc2)c2ncc(C(=O)N[C@H](C)CO)cc2c1` [Compound I-18, (R)-N-(1-hydroxypropan-2-yl)-6-methoxy-8-(4-(2,2,2-trifluoroethoxy)phenyl)quinoline-3-carboxamide]: the GI50 in experiment [1] was 1000 to 5000 nM. In experiment [2], the IC50 is 150 to 300 nM.
